Assay results as given in patent US20050106558A1, “Library of modified structural genes or capsid modified particles useful for the identification of viral clones with desired cell tropism” (priority 2001, published 2005).

How the values were obtained:
[1] = test system: M-07e cells; assay: Transduction efficiency of rAAV-GFP clones on M-07e cells (FACS), with or without competitors; format: cell-based, human
Procedure: Cells were seeded in 96 or 24 well plates (Nunc, Wiesbaden, Germany) and infected with rAAV-GFP clones, harvested 48 hrs p.i., washed and resuspended in 1 ml PBS. The percentage of GFP expressing cells was determined by flow cytometry with a Coulter Epics XL-MCL (Beckman Coulter, Krefeld, Germany). A minimum of 5000 cells were analyzed for each sample. Infectivity of the retargeted mutants was determined in the presence or absence of various concentrations of GRGDTP or GRGES peptides (Bachem, Bubendorf, Swiss) or 5 I.U./[II soluble heparin (Braun, Melsungen, Germany).
The selected capsid mutants were tested for their ability to transduce M-07e cells (FIG. 5a). At a genomic particle/cell ratio of 2×10^4, the mutants rAAV-M07A and rAAV-M07T transduced 50±2.5% and 47±2.7% of M-07e cells, respectively, representing a 100 and 94 fold increase in comparison to rAAV-wt transduction efficiency (0.5±0.01%). In contrast, rAAV-MecA and rAAV-MecB transduced M-07e cells with an efficiency of only 8.1±1.5% and 16±2%. The vector rAAV-L14, carrying an RGD motif inserted at position 587 (Girod A et al (1999) supra), was also compared. […] This highlighted the advantage of the combinatorial approach when compared with the simple insertion of an exogenous sequence.
We then examined whether the transduction of M-07e cells by rAAV-M07A and rAAV-M07T vectors was specifically mediated by the amino acids inserted at position 587. In the capsid of wt AAV, the region around position 587 is involved in the binding to heparan sulfate proteoglycan (HSPG) (Nicklin S A et al. (2001) Mol. Ther. 4, 174-81; Wu P. et al. (2000) J. Virol. 74, 8635-47), the primary receptor of AAV-2 (Summerford C and Samulski J (1998) J. Virol. 72, 1438-45). Pre-incubation with soluble heparin, an HSPG analogue and competitor, inhibited transduction of M-07e cells by rAAV-MecB but not by rAAV-M07A, rAAV-M07T and rAAV-MecA (FIG. 5a). […] This effect was concentration-dependent (FIG. 5b). […]

[2] = molecular target: integrin receptor expressed on the surface of the target cells; assay: cell-based or functional assay

Q: GRGES was tested. Which “effect of inactive GRGES peptide on transduction” value ([1]; M-07e cells, 450 μM) did it give?
A: no effect

Q: Which “reduction of transduction efficiencies by competing RGDS peptide” value ([1]; M07e cells incubated with 100 uM peptide prior to infection) does the source give for RGDS here?
A: more than 50%

Q: With RGES as the substance, how does the “effect of RGES peptide pre-incubation on infection” value ([1]; M07e cells) read?
A: failed to inhibit

Q: “rAAV-M07A (RGDAVGV insertion) (from UniProt P03135 1-587; P03135 588-735)” was tested. Which reduction of M07e cell transduction after incubation of the cells with 100 uM RGDS peptide [2] did it give?
A: > 50%

Q: For “rAAV-M07T (RGDTPTS insertion) (from UniProt P03135 1-587; P03135 588-735)”, which reduction of M07e cell transduction after incubation of the cells with 100 uM RGDS peptide [2] is on record?
A: > 50%
